One may read the IC50 as the concentration that inhibits the measured activity by half.

This passage reports IC50 results from ChEMBL document CHEMBL3808327, “Natural Products as Sources of New Drugs from 1981 to 2014” (J Nat Prod, 2016).

Structures are written as SMILES.

The test addresses Serine/threonine-protein kinase B-raf (Homo sapiens, UniProt P15056, V600E). Put plainly: Inhibition of N-terminal his-tagged BRAF V600E mutant (448 to 723 residues) (unknown origin) expressed in Escherichia coli BL21(DE3) cells assessed as phosphorylation of biotinylated-MEK by AlphaScreen assay. On the technique in general: In Alpha technology, singlet oxygen from a donor bead excites a nearby acceptor bead.

Chain of Serine/threonine-protein kinase B-raf (P15056 2-766 V600E limits assumed): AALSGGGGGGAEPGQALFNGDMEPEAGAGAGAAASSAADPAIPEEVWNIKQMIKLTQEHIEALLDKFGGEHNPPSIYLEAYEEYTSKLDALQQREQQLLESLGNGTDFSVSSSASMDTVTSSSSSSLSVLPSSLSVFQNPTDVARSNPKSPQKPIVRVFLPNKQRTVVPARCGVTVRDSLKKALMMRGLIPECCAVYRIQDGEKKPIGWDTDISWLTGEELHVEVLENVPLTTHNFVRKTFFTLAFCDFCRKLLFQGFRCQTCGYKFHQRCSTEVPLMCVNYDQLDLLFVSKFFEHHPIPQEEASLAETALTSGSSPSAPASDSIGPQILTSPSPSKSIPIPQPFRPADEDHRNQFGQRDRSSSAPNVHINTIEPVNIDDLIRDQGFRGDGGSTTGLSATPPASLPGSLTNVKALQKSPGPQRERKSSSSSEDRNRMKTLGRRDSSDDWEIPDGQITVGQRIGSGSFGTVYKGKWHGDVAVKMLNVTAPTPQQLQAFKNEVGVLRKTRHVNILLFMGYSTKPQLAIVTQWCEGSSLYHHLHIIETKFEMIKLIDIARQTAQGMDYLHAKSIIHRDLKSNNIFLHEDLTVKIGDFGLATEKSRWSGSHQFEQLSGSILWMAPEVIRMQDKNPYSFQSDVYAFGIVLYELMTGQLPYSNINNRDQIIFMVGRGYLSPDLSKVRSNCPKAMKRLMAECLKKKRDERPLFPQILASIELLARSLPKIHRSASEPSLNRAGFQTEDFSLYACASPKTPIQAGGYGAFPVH

As for `c1ccc(Nc2c[nH]c3ncccc23)cc1`, the half-inhibitory concentration (IC50) is greater than 100 µM.
